# Values quoted from earlier work as cited in patent US20260027125A1, “AN ANTIBACTERIAL PARENTERAL FORMULATION AND METHODS THEREOF” (BUGWORKS RESEARCH INDIA PVT. LTD., priority 2022, published 2026).
# Settings: counter ion selected for salt screening; cited from earlier work
structure (smiles),measurement,value
O=C(O)CC(O)C(=O)O (stereo not shown) [malic acid],pKa (second value),"3.4, 5.11"
